Where two headings read alike, the source gives them in different places. Each block holds one compound with its values, some of them ahead of it. Residues, ends and D or L forms follow the SMILES beside them.
Key:
Type in all cases: cell-based
[1] = tested on: ten test organisms (four Gram-negative bacteria, three Gram-positive bacteria, three fungi)
From the text: Ten organisms obtained from the American Type Culture Collection (ATCC; Rockville, MD) were used for antimicrobial assays. Four Gram-negative bacteria included Escherichia coli ATCC 25922, Pseudomonas aeruginosa ATCC 27853, Klebsiella oxytoca ATCC 49131, and Proteus vulgaris ATCC 49132. The three Gram-positive bacteria were Staphylococcus aureus 29213, Micrococcus luteus ATCC 49,732, and Enterococcus faecalis ATCC 29212. The three fungi were Candida albicans ATCC 37092, Candida kefyr ATCC 37095, and Candida tropicalis ATCC 37097. The clinical isolates were obtained from Singapore General Hospital (SGH). […]
Antimicrobial Assays. […] After additional incubation at 37 °C for 16–24 h, the diameter of the clear zone surrounding the wells (colony-free) was measured under a microscope. Antimicrobial activities were expressed in units (0.1 mm = 1 unit), and the MICs (in µM) were determined from the x-intercepts of the dose-response curves. […]
The minimum inhibitory concentrations (MICs) of four series of branched peptides and two standards, tachyplesin-1 and the dendrimer D4R, against four Gram-negative bacteria, three Gram-positive bacteria, and three fungi were determined using a two-stage radial diffusion assay in both low- (without NaCl) and high-salt (with 100 mM NaCl) conditions. […]

[2] = tested on: Candida kefyr ATCC 37095
Summary of the method: (§1)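 Two-stage radial diffusion: 1–4 × 10^6 CFU/mL organisms were cast in an underlay of 10 mM sodium phosphate, 0.03% TSB and 0.02% Tween-20, with 100 mM NaCl for high-salt runs. Peptides at seven half-log concentrations diffused for 3 h at 37° C, followed by a TSB agarose overlay and a further 16–24 h. MIC was taken from the x-intercepts of clear-zone dose-response plots, in triplicate.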

[3] = tested on: Klebsiella oxytoca ATCC 49131
Summary of the method: as §1

[4] = tested on: Candida tropicalis ATCC 37097
Summary of the method: as §1

[5] = tested on: Candida albicans ATCC 37092
Summary of the method: as §1

[6] = tested on: Micrococcus luteus ATCC 49,732
Summary of the method: as §1

[7] = tested on: Proteus vulgaris ATCC 49132
Summary of the method: as §1

[8] = tested on: Escherichia coli ATCC 25922
Summary of the method: as §1

[9] = tested on: Pseudomonas aeruginosa ATCC 27853
Summary of the method: as §1

[10] = tested on: Enterococcus faecalis ATCC 29212
Summary of the method: as §1

[11] = tested on: Staphylococcus aureus 29213
Summary of the method: as §1

MIC in four other organisms, high-salt ([1]; 3 h): < 10 µM
Structure (SMILES): CC(C)C[C@H](NC(=O)[C@H](CCCNC(=N)N)NC(=O)[C@H](CCCNC(=N)N)NC(=O)[C@@H](N)Cc1ccc(O)cc1)C(=O)NCCCC[C@H](NC(=O)[C@H](CC(C)C)NC(=O)[C@H](CCCNC(=N)N)NC(=O)[C@H](CCCNC(=N)N)NC(=O)[C@@H](N)Cc1ccc(O)cc1)C(=O)NCCCC[C@H](NC(=O)[C@H](CCCCNC(=O)[C@H](CC(C)C)NC(=O)[C@H](CCCNC(=N)N)NC(=O)[C@H](CCCNC(=N)N)NC(=O)[C@@H](N)Cc1ccc(O)cc1)NC(=O)[C@H](CC(C)C)NC(=O)[C@H](CCCNC(=N)N)NC(=O)[C@H](CCCNC(=N)N)NC(=O)[C@@H](N)Cc1ccc(O)cc1)C(N)=O [D4Y] (HELM PEPTIDE1{Y.R.R.L.K.K.[am]}|PEPTIDE2{Y.R.R.L}|PEPTIDE3{Y.R.R.L.K}|PEPTIDE4{Y.R.R.L}$PEPTIDE1,PEPTIDE2,5:R3-4:R2|PEPTIDE3,PEPTIDE4,5:R3-4:R2|PEPTIDE1,PEPTIDE3,6:R3-5:R2$$$V2.0; N-terminus and C-terminus assumed)
antimicrobial activity under high-salt conditions against six of ten tested organisms ([1]; radial diffusion assay, 1% agarose, 10 mM phosphate buffer with 100 mM NaCl, result in words): inactive

MIC, C. kefyr, H-Salt ([2]; ATCC 37095, radial diffusion assay, high-salt (100 mM NaCl), triplicates): 0.8 µM | MIC, C. kefyr, L-Salt ([2]; ATCC 37095, radial diffusion assay, low-salt (without NaCl), triplicates): 0.8 µM | MIC, K. oxytoca, H-Salt ([3]; ATCC 49131, radial diffusion assay, high-salt (100 mM NaCl), triplicates): 6.8 µM | MIC, K. oxytoca, L-Salt ([3]; ATCC 49131, radial diffusion assay, low-salt (without NaCl), triplicates): 1.6 µM | MIC, C. tropicalis, H-Salt ([4]; ATCC 37097, radial diffusion assay, high-salt (100 mM NaCl), triplicates): 0.8 µM | MIC, C. tropicalis, L-Salt ([4]; ATCC 37097, radial diffusion assay, low-salt (without NaCl), triplicates): 1.4 µM | MIC, C. albicans, H-Salt ([5]; ATCC 37092, radial diffusion assay, high-salt (100 mM NaCl), triplicates): 1.4 µM | MIC, C. albicans, L-Salt ([5]; ATCC 37092, radial diffusion assay, low-salt (without NaCl), triplicates): 1.3 µM | MIC, M. luteus, H-Salt ([6]; ATCC 49,732, radial diffusion assay, high-salt (100 mM NaCl), triplicates): 2.0 µM | MIC, M. luteus, L-Salt ([6]; ATCC 49,732, radial diffusion assay, low-salt (without NaCl), triplicates): 2.1 µM | MIC, P. vulgaris, H-Salt ([7]; ATCC 49132, radial diffusion assay, high-salt (100 mM NaCl), triplicates): 23.2 µM | MIC, P. vulgaris, L-Salt ([7]; ATCC 49132, radial diffusion assay, low-salt (without NaCl), triplicates): 4.7 µM | MIC, E. coli, H-Salt ([8]; ATCC 25922, two-stage radial diffusion assay, high-salt (underlay gel 10 mM sodium phosphate, 0.03% TSB, 0.02% Tween-20, with 100 mM NaCl), 37 °C, x-intercept of dose-response curve, triplicates): 4.4 µM | MIC, E. coli, L-Salt ([8]; ATCC 25922, two-stage radial diffusion assay, low-salt (underlay gel 10 mM sodium phosphate, 0.03% TSB, 0.02% Tween-20, without NaCl), 37 °C, x-intercept of dose-response curve, triplicates): 0.9 µM | MIC, P. aeruginosa, H-Salt ([9]; ATCC 27853, radial diffusion assay, high-salt (100 mM NaCl), triplicates): 4.0 µM | MIC, P. aeruginosa, L-Salt ([9]; ATCC 27853, radial diffusion assay, low-salt (without NaCl), triplicates): 4.4 µM | MIC, E. faecalis, H-Salt ([10]; ATCC 29212, radial diffusion assay, high-salt (100 mM NaCl), triplicates): > 500 µM | MIC, E. faecalis, L-Salt ([10]; ATCC 29212, radial diffusion assay, low-salt (without NaCl), triplicates): 5.4 µM | MIC, S. aureus, H-Salt ([11]; strain 29213, radial diffusion assay, high-salt (100 mM NaCl), triplicates): 4.8 µM | MIC, S. aureus, L-Salt ([11]; strain 29213, radial diffusion assay, low-salt (without NaCl), triplicates): 6.7 µM
Structure (SMILES): CC(=O)NCCC[C@H](NC(=O)[C@H](CCCNC(=N)N)NC(=O)[C@H](Cc1ccc(O)cc1)NC(=O)[C@H](CC(C)C)NC(=O)[C@@H](N)CCCNC(=N)N)C(=O)NCCC[C@H](NC(=O)[C@H](CCCNC(=N)N)NC(=O)[C@H](Cc1ccc(O)cc1)NC(=O)[C@H](CC(C)C)NC(=O)[C@@H](N)CCCNC(=N)N)C(=O)NCCC[C@H](NC(=O)[C@H](CCCNC(=N)N)NC(=O)[C@H](Cc1ccc(O)cc1)NC(=O)[C@H](CC(C)C)NC(=O)[C@@H](N)CCCNC(=N)N)C(=O)NCCC[C@H](NC(=O)[C@H](CCCNC(=N)N)NC(=O)[C@H](Cc1ccc(O)cc1)NC(=O)[C@H](CC(C)C)NC(=O)[C@@H](N)CCCNC(=N)N)C(N)=O [iO4R] (HELM PEPTIDE1{R.L.Y.R.[Orn]}|PEPTIDE2{[ac]}|PEPTIDE3{R.L.Y.R.[Orn]}|PEPTIDE4{R.L.Y.R.[Orn]}|PEPTIDE5{R.L.Y.R.[Orn].[am]}$PEPTIDE1,PEPTIDE2,5:R3-1:R2|PEPTIDE1,PEPTIDE3,5:R2-5:R3|PEPTIDE3,PEPTIDE4,5:R2-5:R3|PEPTIDE4,PEPTIDE5,5:R2-5:R3$$$V2.0)

MIC, C. kefyr, H-Salt ([2]; ATCC 37095, 3 h): 0.5 µM | MIC, C. kefyr, L-Salt ([2]; ATCC 37095, 3 h): 0.6 µM | MIC, K. oxytoca, H-Salt ([3]; ATCC 49131, 3 h): 6.2 µM | MIC, K. oxytoca, L-Salt ([3]; ATCC 49131, 3 h): 1.2 µM | MIC, C. tropicalis, H-Salt ([4]; ATCC 37097, 3 h): 0.6 µM | MIC, C. tropicalis, L-Salt ([4]; ATCC 37097, 3 h): 0.9 µM | MIC, C. albicans, H-Salt ([5]; ATCC 37092, 3 h): 0.8 µM | MIC, C. albicans, L-Salt ([5]; ATCC 37092, 3 h): 0.6 µM | MIC, M. luteus, H-Salt ([6]; ATCC 49, 3 h): 2.0 µM | MIC, M. luteus, L-Salt ([6]; ATCC 49, 3 h): 0.8 µM | MIC, P. vulgaris, H-Salt ([7]; ATCC 49132, 3 h): 7.8 µM | MIC, P. vulgaris, L-Salt ([7]; ATCC 49132, 3 h): 8.2 µM | MIC, E. coli, H-Salt ([8]; ATCC 25922, 3 h): 9.2 µM | MIC, E. coli, L-Salt ([8]; ATCC 25922, 3 h): 0.7 µM | MIC, P. aeruginosa, H-Salt ([9]; ATCC 27853, 3 h): 3.8 µM | MIC, P. aeruginosa, L-Salt ([9]; ATCC 27853, 3 h): 1.0 µM | MIC, E. faecalis, H-Salt ([10]; ATCC 29212, 3 h): > 500 µM | MIC, E. faecalis, L-Salt ([10]; ATCC 29212, 3 h): 2.2 µM | MIC, S. aureus, H-Salt ([11]; 29213, 3 h): 6.4 µM | MIC, S. aureus, L-Salt ([11]; 29213, 3 h): 1.9 µM
Structure (SMILES): CC(C)C[C@H](NC(=O)[C@@H](N)CCCNC(=N)N)C(=O)N[C@@H](Cc1ccc(O)cc1)C(=O)N[C@@H](CCCNC(=N)N)C(=O)NCCC[C@H](NC(=O)[C@H](CCCNC(=N)N)NC(=O)[C@H](Cc1ccc(O)cc1)NC(=O)[C@H](CC(C)C)NC(=O)[C@@H](N)CCCNC(=N)N)C(=O)NCCC[C@H](NC(=O)[C@H](CCCNC(=N)N)NC(=O)[C@H](Cc1ccc(O)cc1)NC(=O)[C@H](CC(C)C)NC(=O)[C@@H](N)CCCNC(=N)N)C(=O)NCCC[C@H](NC(=O)[C@H](CCCNC(=N)N)NC(=O)[C@H](Cc1ccc(O)cc1)NC(=O)[C@H](CC(C)C)NC(=O)[C@@H](N)CCCNC(=N)N)C(=O)NCCC[C@H](NC(=O)[C@H](CCCNC(=N)N)NC(=O)[C@H](Cc1ccc(O)cc1)NC(=O)[C@H](CC(C)C)NC(=O)[C@@H](N)CCCNC(=N)N)C(N)=O [iO5R] (HELM PEPTIDE1{R.L.Y.R.[Orn]}|PEPTIDE2{R.L.Y.R}|PEPTIDE3{R.L.Y.R.[Orn]}|PEPTIDE4{R.L.Y.R.[Orn]}|PEPTIDE5{R.L.Y.R.[Orn].[am]}$PEPTIDE1,PEPTIDE2,5:R3-4:R2|PEPTIDE1,PEPTIDE3,5:R2-5:R3|PEPTIDE3,PEPTIDE4,5:R2-5:R3|PEPTIDE4,PEPTIDE5,5:R2-5:R3$$$V2.0; N-terminus assumed)

From publication PMC10489980, “Design of Potent and Salt-Insensitive Antimicrobial Branched Peptides” (Polymers, 2023)
